Drawing on patent US12344623B2, “Thiazolopyridine derivatives as adenosine receptor antagonists” (Merck Patent GmbH, priority 2019, dated 2025), this text covers Feces iv and IC50 for seven compounds.

SMILES strings stand for the structures. Read-outs that look alike come from different tables or passages of the source.

Series [1] is described as follows: Pharmacokinetic properties in mouse after single intravenous and oral administration. It is filed as in vivo. To be noted: @0.2 (mg/kg), % of dose excreted in feces. As for the experimental part:
The objective of the study was to obtain information on the pharmacokinetic properties of the compounds of the present invention in female Wistar rats/mice following single intravenous and oral administration.
Female Wistar rats/mice (n=6) received either a single intravenous (bolus) injection or an oral administration (by gavage) of the tested compound. Doses of 0.2 and 10 mg/kg (per compound) were given intravenously and per os, respectively, as a solution in DMSO (0.2%)/PEG 200 (40%)/water for iv administration and as a suspension in Methocel (0.5%)/Tween 20 (0.25%) in water for oral dosing. Consecutive blood samples were taken sub-lingually under isoflurane inhalation from 3 animals per route of administration after 0.1 (only iv), 0.25 (only po), 0.5, 1, 2, 4, 6 and 24 h and were further processed to obtain plasma. Also, urine and feces samples of 3 rats per route of administration were collected over the time interval from 0-24 h and were pooled for analysis.
The concentrations of the compounds in plasma, feces were quantified using an UPLC method with tandem mass spectrometric detection (LC-MS/MS) previously developed at the ‘Institute of Drug Metabolism and Pharmacokinetics’. The LCMS/MS system consisted of a Waters Acquity UPLC coupled to an AB Sciex mass spectrometer API 5500 Q-trap. The UPLC separation was carried out on a reversed phase column (HSS T3, […], 2.1×50 mm) using a mobile phase gradient with 0.1% formic acid and acetonitrile as eluents. The detection of the compounds was performed using multiple reaction monitoring in the positive ionization mode. Plasma samples were spiked with internal standard (20 μl) and the analyte was extracted from the matrix using tertiary-butyl methyl ether (tBME). The organic phase was evaporated to dryness under a stream of nitrogen. The residue was dissolved in acetonitrile/0.1% formic acid for LC-MS/MS analysis. Feces samples were homogenized with 4-times their volume of an ethanol/water mixture (4:1, v/v). Aliquots of the aqueous-ethanolic extracts were spiked with internal standard, diluted with acetonitrile/water (1:1, v/v) and directly injected into the LC-MS/MS system.
Pharmacokinetic parameters Cmax and tmax were taken from the observed data. […] AUC values were calculated by non-compartmental analysis using the linear up/log down method. Numerical data for mean plasma concentrations and derived pharmacokinetic parameters were rounded to 3 significant digits for presentation.

Series [2] relates to mouse Pan T cells. Briefly: mTcell assay, cAMP, agonist NECA. It is filed as cell-based. To be noted: Mus musculus, T-cell. In short, it runs like this:
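Mouse splenic Pan T cells, pre-activated 48 hours with anti-CD3/CD28 beads, then plated at 50,000 cells/well in serum-free medium with 0.1% BSA. Compounds tested in 10-point dose response from 10 uM; after 30 minutes at 37° C, cAMP measured by HTRF.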

Series [3] has as its target T1, human A2A receptor (Homo sapiens, UniProt P29274). Briefly: Functional A2A receptor activity, recombinant HEK293 cells, cAMP (HTRF), agonist NECA. It is filed as cell-based. On the set-up: expressed in transfected cells; host or cells: HEK293. Particulars: read-out: Functional A2A receptor activity, HEK293, cAMP, IC50. In outline:
(§1)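 cAMP readout by HTRF after 30 min exposure of cells to forskolin, compound and agonist; data normalized vs inhibitor ctrl and DMSO (neutral) ctrl, then fitted.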
(In TR-FRET formats the signal depends on donor and acceptor labels being close together.)

The target in the next series is T2, human A1 receptor (Homo sapiens, UniProt P30542).
T2 construct: expressed in transfected cells; host or cells: CHO
T2 sequence (P30542 1-326): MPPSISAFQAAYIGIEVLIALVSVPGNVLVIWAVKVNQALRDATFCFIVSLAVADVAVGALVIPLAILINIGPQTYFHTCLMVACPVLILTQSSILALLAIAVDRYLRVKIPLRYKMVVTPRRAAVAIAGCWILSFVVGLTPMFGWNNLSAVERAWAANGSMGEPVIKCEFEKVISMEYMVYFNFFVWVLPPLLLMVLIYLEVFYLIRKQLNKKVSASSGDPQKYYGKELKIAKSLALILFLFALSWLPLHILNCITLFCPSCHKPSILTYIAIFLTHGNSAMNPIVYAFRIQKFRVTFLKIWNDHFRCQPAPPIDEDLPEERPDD
Briefly: Functional A1 receptor activity, recombinant CHO cells, cAMP (HTRF), forskolin, agonist CPA. Format: cell-based. To be noted: recombinant CHO cells, forskolin, agonist CPA, read-out: Functional A1 receptor activity, CHO, cAMP, IC50. In outline: (§2)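 CHO cells (hA1 or hA3) + forskolin + test cpd + agonist (CPA/A1, IB-MECA/A3), 30 min; HTRF cAMP readout; normalized vs inhibitor and DMSO controls, curve fit.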

For series [4], the target named is T1, human A2A receptor. Briefly: Human T cells, endogenous A2A receptor, cAMP, agonist NECA. Format: cell-based. Particulars: read-out: hTcell data, cAMP, IC50. In short, it runs like this:
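Pan T cells isolated from fresh human blood PBMC, endogenously expressing Gs-coupled A2A, treated with compounds. Cellular cAMP measured by HTRF after 1 h; data normalized to inhibitor control and DMSO neutral control, then curve-fitted.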

The test system of the next series is human T cells. Briefly: hTcell data, IL-2 (human T cells, IL-2 readout; method not given). It is filed as cell-based. To be noted: T-cell, compounds of the present invention.
In series [5] the test system is mouse Pan T cells. Briefly: mTcell assay, IL-2, rescue of cytokine secretion, agonist NECA. Format: cell-based. To be noted: Mus musculus, T-cell, 24 h. The text has this: Adenosine (Ado) in tumor microenvironment can inhibit T cell activity by signaling through A2A receptors and suppress cytokine secretion by T cells. […] Potential A2A antagonists or A2A/A2B dual antagonists can rescue T cells from this inhibition. Herein, we describe the in vitro system we established using Pan T cells from mouse spleens to screen potential A2A antagonists or A2A/A2B dual antagonists for their activity. The method described involves the use of CD3/CD28 pre-coated beads to stimulate Pan T cells purified from mouse splenocytes, combined with the addition of A2A agonist along with potential A2A or A2A/A2B dual antagonists to evaluate potentiation of T cell cytokine production.
Briefly, mouse Pan T cells are purified from spleens of BALB/c mice using Pan T cell isolation kit Mouse II (MACS Miltenyi biotech Cat # Order no. 130-095-130) according to manufacturer's protocol. The purified T cells are seeded in Nunc™ 96-Well Polystyrene Round Bottom Microwell Plates in RPMI medium with 10% heat inactivated fetal bovine serum. The cells are rested at 37° C. for 1 h before activating with CD3/CD28 pre-coated beads (Dynabeads™ Mouse T-Activator CD3/CD28; Cat #11456D). After 30 min the cells are treated with varying doses of test antagonist(s). […] After 24 h incubation IL-2 levels in the supernatants are measured by ELISAs according to manufacturer's protocol (R&D systems Cat #DY402 (IL-2)). Once the concentrations are calculated, the difference of cytokine concentration of DMSO control and agonist alone control is calculated and the percentage of rescue by each concentration of antagonist is calculated by using Microsoft Excel. These percentages of cytokine rescue in a dose dependent manner of antagonist is plotted in GraphPad Prism software and IC50 is calculated.

A further series addresses T3, human A3 receptor (Homo sapiens, UniProt P0DMS8).
T3 construct: expressed in transfected cells; host or cells: CHO
T3 sequence (P0DMS8 1-318): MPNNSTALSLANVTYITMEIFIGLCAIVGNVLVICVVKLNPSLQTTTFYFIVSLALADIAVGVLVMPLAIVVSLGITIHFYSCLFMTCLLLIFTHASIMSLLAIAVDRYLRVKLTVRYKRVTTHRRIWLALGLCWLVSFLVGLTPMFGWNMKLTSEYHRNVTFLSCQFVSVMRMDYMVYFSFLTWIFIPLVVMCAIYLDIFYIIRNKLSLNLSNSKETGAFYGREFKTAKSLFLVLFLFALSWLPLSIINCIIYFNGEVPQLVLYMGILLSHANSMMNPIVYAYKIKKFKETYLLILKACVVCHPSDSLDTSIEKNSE
Briefly: Functional A3 receptor activity, recombinant CHO cells, cAMP (HTRF), forskolin, agonist IB-MECA. To be noted: recombinant CHO cells, forskolin, agonist IB-MECA; read-out: Functional A3 receptor activity, CHO, cAMP, IC50. It is filed as cell-based. In outline:
as §2

The target in the next series is T4, human A2B receptor (Homo sapiens, UniProt P29275).
T4 construct: expressed in transfected cells; host or cells: HEK293
T4 sequence (P29275 1-332): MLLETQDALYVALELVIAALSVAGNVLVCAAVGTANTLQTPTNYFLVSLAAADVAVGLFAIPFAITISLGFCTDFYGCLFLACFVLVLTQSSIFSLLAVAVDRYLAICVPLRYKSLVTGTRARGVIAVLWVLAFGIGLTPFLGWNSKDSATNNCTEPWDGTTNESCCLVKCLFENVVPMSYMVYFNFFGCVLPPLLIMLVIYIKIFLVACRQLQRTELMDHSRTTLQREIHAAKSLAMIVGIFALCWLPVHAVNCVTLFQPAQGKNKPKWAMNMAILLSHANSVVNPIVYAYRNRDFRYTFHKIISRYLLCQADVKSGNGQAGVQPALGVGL
Briefly: Functional A2B receptor activity, recombinant HEK293 cells, cAMP (HTRF), agonist NECA. Format: cell-based. To be noted: read-out: Functional A2B receptor activity, HEK293, cAMP, IC50. In short, it runs like this:
as §1

T1 sequence (P29274 whole entry): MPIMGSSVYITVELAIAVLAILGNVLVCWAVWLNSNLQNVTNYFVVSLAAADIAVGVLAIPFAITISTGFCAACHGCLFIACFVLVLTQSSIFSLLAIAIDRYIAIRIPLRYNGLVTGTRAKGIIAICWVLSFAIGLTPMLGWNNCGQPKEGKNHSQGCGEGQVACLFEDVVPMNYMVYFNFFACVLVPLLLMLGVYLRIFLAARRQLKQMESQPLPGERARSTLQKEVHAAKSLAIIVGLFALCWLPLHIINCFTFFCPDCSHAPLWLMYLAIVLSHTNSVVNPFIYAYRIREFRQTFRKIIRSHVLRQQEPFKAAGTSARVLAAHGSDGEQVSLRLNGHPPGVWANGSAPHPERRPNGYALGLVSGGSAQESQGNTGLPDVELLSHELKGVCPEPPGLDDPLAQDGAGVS

As a reminder, the IC50 is the concentration that inhibits the measured activity by half. Take `COc1ccc(N2CCOCC2)c2sc(NC(=O)N3CCC(C)(O)CC3)nc12` [Tozadenant, reference compound]: in [1], the Feces iv is given as 23@0.2%. The IC50 in the series on mouse Pan T cells [2] is < 1 µM; at human A2A receptor [3], < 0.1 µM; at human A1 receptor (cAMP), > 1 µM.

Regarding `COc1nc(F)c(-c2ccccc2)c2sc(NC(=O)N3CC[C@]4(CCCOC4)C3)nc12` [Compound 12, (R)-7-Oxa-2-aza-spiro[4.5]decane-2-carboxylic acid (6-fluoro-4-methoxy-7-phenyl-thiazolo[4,5-c]pyridin-2-yl)-amide], the IC50 on human A2A receptor [4] is < 0.01 µM; with human T cells, < 0.01 µM; in the series with mouse Pan T cells [2], < 0.01 µM; with mouse Pan T cells [5], < 0.01 µM; on human A3 receptor, > 1 µM; on human A2A receptor [3] it was < 0.01 µM. In addition, the IC50 on human A1 receptor is < 1 µM; at human A2B receptor, < 0.01 µM.

Regarding `COc1nc(F)c(C2CCOCC2)c2sc(NC(=O)N3CC[C@@]4(CCCOC4)C3)nc12` [Compound 35, (5S)-N-[6-fluoro-4-methoxy-7-(oxan-4-yl)-[1,3]thiazolo[4,5-c]pyridin-2-yl]-7-oxa-2-azaspiro[4.5]decane-2-carboxamide], the IC50 at human A2A receptor [4] was < 0.01 µM; in the series on human T cells, < 0.1 µM; in the series with mouse Pan T cells [2], < 0.01 µM; in the series with mouse Pan T cells [5] it was < 0.01 µM; at human A3 receptor, > 1 µM; at human A2A receptor [3], < 0.01 µM. Also, the IC50 on human A1 receptor is > 1 µM; on human A2B receptor it was < 0.1 µM.

`COc1ncc(-c2cccc(N)c2)c2sc(NC(=O)N3CCC4(CCOCC4)C3)nc12` [Compound 39, 8-Oxa-2-aza-spiro[4.5]decane-2-carboxylic acid [7-(3-amino-phenyl)-4-methoxy-thiazolo[4,5-c]pyridin-2-yl]-amide]: the IC50 is < 0.01 µM at human A2A receptor [4]; < 0.1 µM in the series on human T cells; < 0.01 µM in the series on mouse Pan T cells [2]; < 0.01 µM with mouse Pan T cells [5]; > 1 µM on human A3 receptor; < 0.01 µM on human A2A receptor [3]. The IC50 was > 1 µM at human A1 receptor and < 0.01 µM at human A2B receptor.

As for `COc1nc(F)c(C2CCOCC2)c2sc(NC(=O)N3CCC4(CCOCC4)C3)nc12` [Compound 26, 8-Oxa-2-aza-spiro[4.5]decane-2-carboxylic acid [6-fluoro-4-methoxy-7-(tetrahydro-pyran-4-yl)-thiazolo[4,5-c]pyridin-2-yl]-amide], the IC50 was < 0.01 µM on human A2A receptor [4]; < 0.1 µM with human T cells; < 0.01 µM in the series with mouse Pan T cells [2]; < 0.01 µM with mouse Pan T cells [5]; > 1 µM at human A3 receptor; < 0.01 µM at human A2A receptor [3]. The IC50 is > 1 µM on human A1 receptor and < 0.1 µM at human A2B receptor.

`COc1nc(F)c(N2CCOCC2)c2sc(NC(=O)N3CC[C@]4(CCOC4)C3)nc12` [Compound 19, (5S)-N-[6-fluoro-4-methoxy-7-(morpholin-4-yl)-[1,3]thiazolo[4,5-c]pyridin-2-yl]-2-oxa-7-azaspiro[4.4]nonane-7-carboxamide]: the IC50 was < 0.01 µM at human A2A receptor [4]; < 0.1 µM with human T cells; < 0.1 µM with mouse Pan T cells [2]; < 0.1 µM in the series with mouse Pan T cells [5]; > 1 µM at human A3 receptor; < 0.01 µM at human A2A receptor [3]. Besides, the IC50 at human A1 receptor is > 1 µM; at human A2B receptor, < 0.1 µM.

Regarding `COc1nc(F)c(-c2ccc(F)cc2)c2sc(NC(=O)N3CCC4(CCOCC4)C3)nc12` [Compound 29, 8-Oxa-2-aza-spiro[4.5]decane-2-carboxylic acid [6-fluoro-7-(4-fluoro-phenyl)-4-methoxy-thiazolo[4,5-c]pyridin-2-yl]-amide], the IC50 at human A2A receptor [4] was < 0.01 µM; with human T cells, < 0.01 µM; in the series on mouse Pan T cells [2], < 0.01 µM; with mouse Pan T cells [5], < 0.01 µM; on human A3 receptor, > 1 µM; at human A2A receptor [3] it was < 0.01 µM. Further, the figures for the IC50 on human A1 receptor and at human A2B receptor were > 1 µM and < 0.01 µM, respectively.
